Reference: paper PMC10334471, “Tumor-targeted dual-action NSAID-platinum(IV) anticancer prodrugs” (Inorganic Chemistry Frontiers, 2023)

Assays:
[1] = Hydrolysis of Asa spiked in fresh murine blood (HPLC-MS); settings: after 30 min blood clotting and serum extraction
Description: To this end, we spiked Asa in fresh murine blood, isolated the serum, applied the extraction protocol and measured the samples via HPLC-MS.
The extraction method for acetylsalicylic acid and salicylic acid from Grobecker and coworkers was used.[26] For method validation and quantification, 99 μl mouse serum were spiked with Asa or salicylic acid dissolved in 1 μl DMSO in order to obtain a range of concentrations from 1 to 100 μM. Immediately afterwards the samples were acidified with 100 μl HCl/H3PO4 (0.1 M each) and extracted via addition of 600 μl of acetonitrile. After vigorous shaking for 1 min the suspension was stored at 4 °C for ten minutes before being centrifuged at 9500g for 10 min. The supernatant was taken up with a pipette and transferred into an Eppendorf tube with approx. 100 mg of solid NaCl. After vigorous shaking, the samples were again stored at 4 °C for 5 min and centrifuged at 9500 g for 5 min. The organic layer was taken up and measured on an Agilent 1260 Infinity II system using a Waters Acquity UPLC BEH C18 1.7 μm 3.0 × 50 mm column coupled to an Agilent InfinityLab LC/MSD mass spectrometer in negative mode. Milli-Q water, containing 0.1% formic acid, and acetonitrile containing 0.1% formic acid were used as eluents. A gradient of 5–95% acetonitrile in 6 min was used.

CT26 allografts [2] = format: in vivo; settings: Asa 50 mg kg^−1 p.o.
Description: (§1) All experiments were executed according to the regulation of the Ethics Committee for the Care and Use of Laboratory Animals at the Medical University Vienna. 8–12 weeks old BALB/c were kept in a pathogen-free environment with a 12 h light dark-cycle with ad libitum access to food and water. Every procedure was performed in a laminar airflow under sterile condition. Tumor growth and possible side effects of drug treatment were evaluated by daily recording the tumor size by caliper measurement according to the formula length × width^2/2 and parameters of the animal's overall health conditions.
(§2) CT26 cells (5 × 10^5 cells in 50 μl serum-free medium) were injected s.c. into the right flank of female BALB/c mice. […] Asa was treated orally using 50 mg kg^−1 in 5% DMSO/0.9% NaCl. Every day, the animals were monitored for the overall health conditions. Additionally, tumor size was measured. In case of a decreased body weight of ∼20% or ulcerated tumors, animals were sacrificed by cervical dislocation and tumors as well as organs were collected.

CT26 allografts [3] = test: Oral anticancer activity in CT26 allografts; format: in vivo, Balb/c mice
Description: It is well known that COX-2 is involved in the paracrine signaling between immune cells, resulting in a pro-tumorigenic tumor microenvironment.[10,33] Consequently, we got interested in the impact of the Asa ligand on the anticancer activity of the drugs in vivo. […] As Asa is clinically applied p.o., we tested the efficacy of OxAsaOAc and asplatin in an oral application setting. […] For the therapy experiment, the animals were treated with OxAsaOAc and asplatin for five subsequent days over two weeks.
as §1

HT-29 = test: MTT assay, 72 h, HT-29; format: cell-based; settings: HT-29, MTT, 72 h treatment, mean ± SD
Description: (§3) All cell cultures were grown at 37 °C in a humidified atmosphere containing 5% CO2. HCT116, RKO and HT-29 cells were cultured in McCoy's 5A Modified Media (Sigma-Aldrich, St. Louis, MO, USA) supplemented with 10% heat-inactivated fetal calf serum (FCS, PAA, Linz, Austria) and 2 mM glutamine (Sigma-Aldrich, St. Louis, MO, USA). The murine (Balb/c) colon cancer cell model CT26 (purchased from American Type Culture Collection, Manassas, VA, USA) were cultured in DMEM/F12 supplemented with 10% fetal calf serum (FCS). SW480 and Caco-2 cells were cultured in MEME media supplemented with 10% and 20% FCS, respectively. All cell culture media and reagents were purchased from Sigma-Aldrich Austria. […] The cells were regularly checked for Mycoplasma contamination.
(§4) Depending on their proliferation rate, cells were seeded at a density of 3500–5000 cells per well in 96-well microtiter plates and allowed to adhere overnight. […] Cell viability was determined using the 3-(4,5-dimethylthiazol-2-yl)-2,5-diphenyltetrazolium bromide (MTT) assay (EZ4U, Biomedia, Vienna, Austria) according to the manufacturer's recommendation. Depending on the metabolic capacity, the cell lines were incubated between one and three hours at 37 °C and subsequently absorbance was measured at 450 nm (620 nm as a reference) with a Tecan Reader infinite® M200Pro (Tecan Group Ltd, Switzerland). Data were analyzed using Graph Pad prism (version 8.0.1) by using the point-to-point function. […] Following, dose–response curves were calculated using the point-to-point function.

CT26 (murine) = test: MTT assay, 72 h, CT26; format: cell-based; settings: 72 h treatment, mean ± SD
Description: as §3, §4

HCT116 = test: MTT assay, 72 h, HCT116; format: cell-based; settings: mean ± SD
Description: as §3, §4

[4] = Stability in aqueous buffer pH 7.4 (HPLC); format: physicochemical; settings: for Stability in aqueous solution: 1 mM, 250 mM phosphate buffer pH 7.4, 20 °C, 25 h, HPLC
Description: (§5) Phosphate buffer (250 mM, pH 7.4) containing 1 mM platinum compound was incubated at 20 °C, with and without the addition of 10 eq. L-ascorbic acid. […] A gradient of 5–95% over 5 minutes was used. To evaluate the current state of the reaction, the peak area of the parental complex was used.

HCT116/OxR = test: MTT assay, 72 h, HCT116/OxR (oxaliplatin-resistant); format: cell-based; settings: mean ± SD
Description: as §3, §4

RKO = test: MTT assay, 72 h, RKO; format: cell-based; settings: 72 h treatment, mean ± SD
Description: as §3, §4

SW480 = test: MTT assay, 72 h, SW480; format: cell-based; settings: 72 h treatment, mean ± SD
Description: as §3, §4

[5] = Reduction kinetics with 10 eq. ascorbic acid (UHPLC); format: physicochemical
Description: as §5

Caco-2 = test: MTT assay, 72 h, Caco-2; format: cell-based; settings: Caco-2, MTT, 72 h treatment, mean ± SD
Description: as §3, §4

[6] = Released salicylic acid in serum of mice after single i.v. administration (UHPLC-MS)
Description: After 10 min, 1 h and 24 h blood was collected via the facial vein. Serum was isolated by centrifugation at 900 g for 10 min for two times and stored at −80 °C. Platinum content was detected by ICP-MS measurements, using an Agilent 7800 (Agilent Technologies, Tokyo, Japan) equipped with an Agilent SPS 4 autosampler (Agilent Technologies, Tokyo, Japan) and a MicroMist nebulizer. The Agilent MassHunter software package (Workstation Software, Version C.01.04, 2018) was used for data evaluation. The ICP-MS operation parameters are given in Table S1. ^† Salicylic acid was extracted and detected as described above.

[7] = Serum levels and organ distribution of platinum in CT26-bearing mice (ICP-MS); format: in vivo, Balb/c mice; settings: 24 h after single i.v. dose equimolar to 9 mg kg^−1 oxaliplatin
Description: CT26 cells (5 × 10^5 cells in 50 μl serum-free medium) were injected subcutaneously (s.c.) into the right flank of female BALB/c mice. […] After 24 h, the animals were anesthetized and blood was drawn. The animals were sacrificed by cervical dislocation and tumors as well as organs were collected for measurement with ICP-MS. To isolate serum and blood pellets, blood was centrifuged for 10 min at 3000 rpm. The supernatant characterized as serum was transferred to a new tube and centrifuged again to get rid of residual red blood cells.

[8] = Preliminary oral tolerability experiments in tumor-free mice; format: in vivo; settings: p.o., equivalent to 7.5 mg kg^−1 Asa and 12.5 mg kg^−1 cisplatin
Description: It is well known that COX-2 is involved in the paracrine signaling between immune cells, resulting in a pro-tumorigenic tumor microenvironment.[10,33] Consequently, we got interested in the impact of the Asa ligand on the anticancer activity of the drugs in vivo. Therefore, we chose immune-competent murine colon cancer CT26 allografts as test system, which were characterized by high COX-2 expression (Fig. S4 ^†). […] Thus, the experiment was stopped on day 19 due to a distinct drop in body weight in these animals. As Asa is clinically applied p.o., we tested the efficacy of OxAsaOAc and asplatin in an oral application setting. […] For the therapy experiment, the animals were treated with OxAsaOAc and asplatin for five subsequent days over two weeks. […] Consequently, we concluded that the drug doses reaching the tumor in these therapy settings were insufficient, which prompted us to aim for carrier systems with enhanced tumor-targeting properties.

CT26 allografts [9] = test: Anticancer activity i.v. in CT26-bearing mice; format: in vivo, Balb/c mice
Description: as §1, §2

albumin = target: T1, albumin (Bos taurus, UniProt P02769); test: Albumin binding in fetal calf serum by SEC-ICP-MS; format: in vitro ADME; settings: 100 μM in FCS (150 mM phosphate buffer, pH 7.4), 37 °C
T1 construct: Fetal calf serum was purchased from Sigma-Aldrich and buffered with 150 mM phosphate pH 7.4; tissue Sigma-Aldrich; host or cells: fetal calf serum
Description: Fetal calf serum was purchased from Sigma-Aldrich and buffered with 150 mM phosphate pH 7.4 in order to guarantee a stable pH. The platinum(IV) complexes (5 mM) were dissolved in 150 mM phosphate buffer (pH 7.4) and diluted 1 : 50 in the buffered serum to obtain a final concentration of 100 μM. The samples were then incubated in the autosampler at 37 °C and analyzed every 1 h for 6 h. Between each sample a pure water blank was measured. For SEC-ICP-MS measurements an Agilent 1260 Infinity system coupled to an Agilent 7800 ICP-MS equipped with a dynamic reaction cell was used. Oxygen (purity 5.5, Messer Austria GmbH, Gumpoldskirchen, Austria) was used as reaction gas.

[10] = Homo sapiens, HCT-116, 72 h treatment
[11] = compared to all four non-albumin-binding drugs

T1 sequence (P02769 25-607): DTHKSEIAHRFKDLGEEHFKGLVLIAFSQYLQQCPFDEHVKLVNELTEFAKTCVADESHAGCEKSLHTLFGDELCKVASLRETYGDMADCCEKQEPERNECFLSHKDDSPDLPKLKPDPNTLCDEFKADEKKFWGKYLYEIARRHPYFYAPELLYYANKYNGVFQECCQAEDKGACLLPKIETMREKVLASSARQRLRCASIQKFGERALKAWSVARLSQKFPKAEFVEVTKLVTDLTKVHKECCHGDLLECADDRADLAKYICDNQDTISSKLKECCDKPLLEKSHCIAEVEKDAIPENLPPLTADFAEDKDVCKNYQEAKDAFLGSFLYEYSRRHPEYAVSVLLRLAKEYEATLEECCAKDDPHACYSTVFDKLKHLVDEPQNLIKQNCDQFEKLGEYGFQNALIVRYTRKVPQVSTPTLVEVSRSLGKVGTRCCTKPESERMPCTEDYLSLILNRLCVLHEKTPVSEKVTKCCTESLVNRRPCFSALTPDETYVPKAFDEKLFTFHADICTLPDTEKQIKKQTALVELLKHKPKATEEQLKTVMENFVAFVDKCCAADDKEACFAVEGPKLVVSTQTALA

Question: For `CC(=O)Oc1ccccc1C(=O)O` [Asa, acetylsalicylic acid], which “Hydrolysis of Asa to salicylic acid” value [1] is on record?
Answer: more than half of Asa was hydrolyzed to salicylic acid

Question: What about the “Response of tumor model (tumor growth)” value (CT26 allografts [2]) of the same molecule?
Answer: responsiveness

Question: And the “Impact on tumor growth” value (CT26 allografts [3]; Asa 15 mg kg^−1 p.o.)?
Answer: no impact on tumor growth

Question: With `CC(=O)[O][Pt-2]12([O]C(C)=O)([NH2+][C@@H]3CCCC[C@H]3[NH2+]1)[O]C(=O)C(=O)[O]2` [Ox(OAc)2] as the molecule, how does the IC50 (HT-29) read?
Answer: 136 ± 34.6 µM

Question: And the IC50 (CT26 (murine))?
Answer: 22.5 ± 2.8 µM

Question: And the IC50 (HCT116; 72 h treatment)?
Answer: 17.4 ± 2.4 µM

Question: What about the “Stability in aqueous solution” value [4] of the same molecule?
Answer: high stability

Question: And the IC50 (HCT116/OxR; 72 h treatment)?
Answer: > 100 µM

Question: And the IC50 (RKO)?
Answer: 9 ± 1 µM

Question: What about the IC50 (SW480) of the same molecule?
Answer: 13.2 ± 2.5 µM

Question: What about the “Intact complex after 6 h” value ([5]; 1 mM, 250 mM phosphate buffer pH 7.4, 20 °C, 10 eq. ascorbic acid, 6 h) of the same molecule?
Answer: 97%

Question: What about the “Intact complex after 24 h” value ([5]; 1 mM, 250 mM phosphate buffer pH 7.4, 20 °C, 10 eq. ascorbic acid, 24 h) of the same molecule?
Answer: 81%

Question: Which results are given for `CC(=O)Oc1ccccc1C(=O)[O][Pt]([OH])([Cl])[Cl].N.N` [Asplatin]?
Answer: IC50 (HT-29): 9.2 ± 0.6 µM; IC50 (CT26 (murine)): 2.5 ± 0.2 µM; IC50 (HCT116; 72 h treatment): 2.2 ± 0.1 µM; Stability in aqueous solution [4]: high stability; IC50 (HCT116/OxR; 72 h treatment): 8.7 ± 1.8 µM; IC50 (RKO): 0.9 µM; IC50 (Caco-2): 6.4 ± 1.1 µM; Free salicylic acid in serum, share of administered dose ([6]; 10 min after single i.v. dose equimolar to 9 mg kg^−1 oxaliplatin, tumor-free Balb/c mice): ~30 mol%; Salicylic acid level in serum ([6]; 24 h after single i.v. dose equimolar to 9 mg kg^−1 oxaliplatin, below LOD): < 3 µM; IC50 (SW480): 0.6 ± 0.1 µM; Platinum levels in liver and kidney [7]: exceptionally high; Remaining intact platinum(IV) complex at 1 h ([5]; 1 mM, 250 mM phosphate buffer pH 7.4, 20 °C, 10 eq. ascorbic acid, 1 h): no remaining intact platinum(IV) complex could be observed; Oral dose that could be used (tolerability) [8]: 20.7 mg/kg; Toxicity i.v. (CT26 allografts [9]; reason for lower i.v. dose equimolar to 3 mg kg^−1 cisplatin): high toxicity; Impact on tumor growth (CT26 allografts [3]; asplatin 20.7 mg kg^−1 p.o., five subsequent days over two weeks): none of the drugs had any impact on tumor growth

Question: Which IC50 (HT-29; Homo sapiens) does the source give for `Cc1ccc(-c2cc(C(F)(F)F)nn2-c2ccc(S(N)(=O)=O)cc2)cc1` [Celecoxib] here?
Answer: 68 ± 6.4 µM

Question: What about the IC50 (CT26 (murine); Mus musculus) of the same molecule?
Answer: 60.9 ± 2.5 µM

Question: And the IC50 (HCT116; [10])?
Answer: 76.2 ± 4.3 µM

Question: What about the IC50 (HCT116/OxR; [10]) of the same molecule?
Answer: 79.2 ± 2.7 µM

Question: And the IC50 (RKO; Homo sapiens)?
Answer: 79.3 ± 4.9 µM

Question: What about the IC50 (Caco-2; Homo sapiens) of the same molecule?
Answer: 79.2 ± 3.6 µM

Question: What about the IC50 (SW480; Homo sapiens) of the same molecule?
Answer: 83.1 ± 1.5 µM

Question: With `CC(=O)Oc1ccccc1C(=O)[O][Pt-2]12([O]C(=O)NCCOCCOCCOCCOCCN3C(=O)C=CC3=O)([NH2+][C@@H]3CCCC[C@H]3[NH2+]1)[O]C(=O)C(=O)[O]2` [OxAsaMal, (OC-6-34)-(2-acetoxybenzoato)[(1R,2R)-1,2-cyclohexanediamino]oxalato[(14-(2,5-dioxo-2,5-dihydro-1H-pyrrol-1-yl)-3,6,9,12-tetraoxatetradecyl)carbamato]platinum(IV)] as the molecule, how does the “Stability of the platinum core” value ([4]; phosphate-buffered saline (PBS) pH 7.4, 24 h) read?
Answer: high stability of the platinum core

Question: And the Platinum plasma levels [7, 11]?
Answer: significantly higher plasma levels

Question: And the “Tumor accumulation of platinum” value [7, 11]?
Answer: higher tumor accumulation

Question: What about the “Reduction behavior (monitored by released Asa and oxaliplatin)” value ([5]; in the presence of ascorbic acid, comparable to OxAsaOAc) of the same molecule?
Answer: slow reduction behavior

Question: What about the “Fraction bound to the albumin fraction” value (albumin; 0 h time point) of the same molecule?
Answer: 77%

Question: What about the “Fraction bound to the albumin fraction” value (albumin; after 1 h) of the same molecule?
Answer: 95%

Question: What about the Prolonged overall survival (CT26 allografts [9]; i.v., 4-times over 2 weeks, dose equimolar to 9 mg kg^−1 oxaliplatin, CT26) of the same molecule?
Answer: ~20 days

Question: What about the “Tolerability (body weight)” value (CT26 allografts [9]; i.v., 4-times over 2 weeks, doses equimolar to 9 mg kg^−1 oxaliplatin) of the same molecule?
Answer: well tolerated

Question: And the “Anticancer activity (tumor growth, overall survival)” value (CT26 allografts [9]; i.v., 4-times over 2 weeks, doses equimolar to 9 mg kg^−1 oxaliplatin, CT26)?
Answer: long-lasting disease control over several days

Question: For `N.N.[Cl][Pt][Cl]` [Cisplatin, cisplatin], which IC50 (HT-29) is on record?
Answer: 10.1 ± 0.3 µM

Question: And the IC50 (CT26 (murine))?
Answer: 1.2 ± 0.2 µM

Question: What about the IC50 (HCT116; 72 h treatment) of the same molecule?
Answer: 3.1 ± 0.5 µM

Question: And the IC50 (HCT116/OxR; 72 h treatment)?
Answer: 10.4 ± 1.8 µM

Question: What about the IC50 (RKO) of the same molecule?
Answer: 1.6 ± 0.3 µM

Question: What about the IC50 (SW480) of the same molecule?
Answer: 7.8 ± 1.3 µM
